The test system of one assay is immune cell profile. Conditions: infants fed formula supplemented with bovine OPN; cited from earlier work.
The next assay deals with lipopolysaccharide (LPS). The conditions noted are these: early life dietary supplementation; cited from earlier work.
For assay [1], the system named is pneumonia virus of mice (PVM). As to the kind of experiment: Neonatal mouse model of PVM-induced bronchiolitis: viral load (PVM-positive airway epithelial cells) and airway epithelial sloughing. The class given is in vivo, mice (C57BL/6 pups). The source says: (§1) C57BL/6 pups were either nursed by OPN-sufficient or OPN-deficient dams.
(§2) At postnatal day 5 (PND5), mice receiving OPN-deficient mother's milk were fed with either a whey protein concentrate (WPC) enriched in OPN (OPNenriched group) or a control WPC (OPN− group) once daily for 15 consecutive days.
(§3) In a similar way, at PND5, mice receiving OPN-sufficient mother's milk were fed with control WPC (OPN+ group) once daily for 15 consecutive days.
(§4) At PND10, all animals were infected intra-nasally (i.n.) with 10 PFU of PVM (J3666) to induce bronchiolitis.
(§5) The used OPN-enriched WPC contained 79 g protein per 100 g, and 729 mg OPN per 100 g. The pups in the OPNenriched group were fed the OPN-enriched WPC as a supplement to deliver 12 μg OPN per average gram of bodyweight per day.
To assess whether OPN intervention has an impact on pathogen expansion, viral load in PVM-infected mice was assessed as the percentage of PVM-positive airway epithelial cells (AEC) stained with an antibody against a specific PVM-glycoprotein. […] AEC detachment is a key feature of viral bronchiolitis and known to be associated with disease severity and viral load. Sloughing of the airway epithelium was quantified by measuring the length of sloughed airway epithelium and expressing this as a percentage of the basement membrane length of a single airway.

Assay [2] concerns pneumonia virus of mice (PVM). As to the kind of experiment: Neonatal mouse model of PVM-induced bronchiolitis: lung immune cells counted by multi-colour flow cytometry. The class given is in vivo, mice (C57BL/6 pups).
Source text: as §1, §2, §3, §4, §5
To investigate whether OPN intervention has an impact on immune cell composition, the number of pDCs, CD4+ and CD8+ T cells and neutrophils in lung tissues 5 and/or 9 days post infection were enumerated using multi-colour flow cytometry. Isolated single-cell suspensions from the lungs were washed with PBS/2% FCS, and red blood cells were lysed using Gey's buffer. Cells were washed again, followed by incubation with anti-FcγRIII/II for 15 min at 4° C. Cells were stained using fluorescently labeled antibodies described in the gating strategies herein, with DAPI, 7-AAD, or Zombie NIR used to exclude dead cells.

In assay [3] the test system is pneumonia virus of mice (PVM). Briefly: Neonatal mouse model of PVM-induced bronchiolitis: airway smooth muscle remodeling by α-smooth muscle actin immunohistochemistry. The conditions noted are these: 9 dpi; OPNenriched group, remodeling dysregulated in OPN− group; FIG. 7. The class given is in vivo, mice (C57BL/6 pups).
Source text: as §1, §2, §3, §4, §5

Results on two substances are retold here after patent US20250144176A1, “COMPOSITIONS COMPRISING OSTEOPONTIN (OPN)” (SOCIETE DES PRODUITS NESTLE S.A., priority 2022, published 2025).

Regarding “bovine OPN: Bovine milk osteopontin, 262 residues, used as dietary supplement in cited studies”, in the assay with immune cell profile, the “immune cell profile of infants” value is given as “more similar to breastfed infants”. Moreover, in the assay with lipopolysaccharide (LPS), the “inflammation resulting from LPS administration” value was “reduced inflammation”.
With osteopontin [OPN], the “virus infected (PVM-positive) airway epithelial cells (AEC), percentage” value in assay [1] (5 dpi, OPNenriched group vs OPN− group, 12 μg OPN per gram bodyweight per day, once daily for 15 days from PND5, FIG. 2a) is listed as “significant decrease”. Moreover, the “sloughing of the airway epithelium (percentage of basement membrane length)” value in assay [1] (9 dpi, OPNenriched group vs OPN+ group, sloughing significantly elevated in OPN− group, FIG. 2b) is “close to the OPN+ group”. In assay [2] (5 dpi (peak of viral infection), OPNenriched group vs OPN− group, FIG. 4a), the “number of CD4+ cells in lung tissues” value is recorded as “significantly higher number”. Also, in assay [2] (9 dpi (peak of immunopathology), OPNenriched group vs OPN− group, FIG. 4b), the “CD4+ T cell accumulation in the lungs” value is reported as “significant decline”. Moreover, the “neutrophil infiltration to the airways (granulocytic inflammation)” value in assay [2] (9 dpi, FIG. 6) was “reduced granulocytic inflammation”. The “number of pDCs in the lung” value in assay [2] (OPNenriched group vs OPN− group, FIG. 3) is reported as “increased number”. Moreover, in assay [3], the “pathological airway smooth muscle remodeling (ASM area)” value was “attenuated pathological airway smooth muscle remodeling”.
